Laboratory results published in patent publication US20060160791A1, “Wood preservative formulations” (priority 1999, published 2006).

System: soft rot fungi belonging to the groups Ascomycotina and Deuteromycotina
Experiment: Soft rot soil burial test on treated beech blocks (similar to ENV-807, toxic limits per EN113)
Details: for Toxic Limit Value: active ingredient retention, beech blocks, John Innes No. 2 compost, 14 weeks at 28° C, lower-upper limits spanning pass/fail (>3% mass loss); for Effective Retention of Tebuconazole: tebuconazole retention needed
Source text: The toxic limit value for a particular biocidal compound is the concentration of the compound which is required to prevent degradation (defined as >3% mass loss) of a substrate by a target organism. Toxic limits are normally expressed as two experimentally-determined concentrations that span the pass/fail point of the test. The toxic index is the midpoint of these two values.
A convenient method of assessing the synergistic properties of a formulation is to use a ‘synergistic index’. This may be defined as: [formula]
The theoretical toxic index may be calculated by interpolation to the theoretical line of action. A SI of 1 indicates no synergism. As the SI increases, so the degree of synergism also increases.
Testing was carried out to determine the performance of active ingredients alone and in mixture using a soft rot soil burial method.
Beech (Fagus sylvatica) blocks measuring 5×5×30 mm were prepared from local grown, seasoned, knot-free sapwood. After oven drying and weighing, the blocks were vacuum impregnated (in groups of 6 replicates) with retentions of the test preservatives which had been freshly prepared using deionised water as the diluent.
After treatment, the blocks were covered with polythene for a period of one week to reduce the drying rate and allow any fixation reactions to occur. They were then fully ventilated by standing on the laboratory bench for 2 weeks and allowed to dry.
Each series of blocks was then exposed in John Innes (No. 2) compost, previously wetted to 110% of water holding capacity using deionised water. The test systems were then incubated for 14 weeks at 28° C.
Following incubation, blocks were removed from the soil, gently rinsed in clean water and then oven dried and re-weighed.
Preservative retention and weight change data were calculated for each block and the results expressed as toxic limit values according to the criteria laid down in the test method EN113.
Where the lower toxic limit value provides a weight loss of 10% m/m or greater, then the upper toxic limit value has been used to indicate the probable effective retention of preservative; this is in accordance with EN113.

**Q.** CC(C)(C)C(O)(CCc1ccc(Cl)cc1)Cn1cncn1 (stereo not drawn) [Tebuconazole, alpha-[2-(4-chlorophenyl)ethyl]-alpha(1,1-dimethylethyl)-1H-1,2,4-triazole-1-ethanol] was tested. Which “Toxic Limit Value” did it give?
**A.** >7.0 kgm^−3

**Q.** And the “Effective Retention of Tebuconazole” value (alone or as part of the named mixture, EN113 conventions)?
**A.** >7.0 kgm^−3

**Q.** And the “Effective Retention of Tebuconazole” value (alone or as part of the named mixture, EN113 conventions, listed as tebuconazole)?
**A.** > 7 kgm^−3

**Q.** How did the “Toxic Limit Value” turn out when CCCC1COC(Cn2cncn2)(c2ccc(Cl)cc2Cl)O1 (stereo not shown) [Propiconazole, 1-[[2-(2-4-dichlorophenyl)-4-propyl-1,3-dioxolan-2-yl]methyl]-1H-1,2,4-triazole] was run?
**A.** >7.0 kgm^−3

**Q.** What about the “Effective Retention of Propiconazole” value (propiconazole retention needed, alone or as part of the named mixture, EN113 conventions) of the same compound?
**A.** >7.0 kgm^−3

**Q.** CC(C1CC1)C(O)(Cn1cncn1)c1ccc(Cl)cc1 (stereo not drawn) [Cyproconazole, (2RS,3RS; 2RS,3SR)-2-(4-chlorophenyl)-3-cyclopropyl-1-(1H-1,2,4-triazol-1-yl)butan-2-ol] was tested. Which “Effective Retention of Cyproconazole” value (cyproconazole retention needed, alone or as part of the named mixture, EN113 conventions) did it give?
**A.** 1.25 kgm^−3

**Q.** With [O-][S+]1CCON=C1c1cc2ccccc2s1 (stereo not shown) [Bethoxazin, 3-(benzo[b]thien-2-yl)-5,6-dihydro-1,4,2-oxathiazine 4-oxide] as the compound, how does the “Toxic Limit Value” read?
**A.** >0.77 kgm^−3

**Q.** And the “Effective Retention of Bethoxazin” value (bethoxazin retention needed, alone or as part of the named mixture, EN113 conventions)?
**A.** >0.77 kgm^−3

**Q.** How did the “Effective Retention of Bardap 26” value (Bardap 26 retention needed, alone or as part of the named mixture, EN113 conventions) turn out when “N,N-didecyl-N-methyl-poly(oxyethyl)ammonium propionate [Bardap 26]” was run?
**A.** >6.2 kgm^−3

**Q.** What about the “Toxic Limit Value” of the same compound?
**A.** >6.2 kgm^−3
